Data: ChEMBL document CHEMBL1201862, “PubChem BioAssay data set” (2004)
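Tested at 5 concentrations; 48 h exposure; 96-well plates; endpoints linearly interpolated, else capped at highest concentration. The concentration for 50% growth inhibition is given as GI50.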 Calls of active or inactive are those of the source. Rule as the data show it: active = GI50 up to about 1.1 µM and inactive = higher.

Legend:
Assay in all cases: NCI-60 cell line screen, 48 h
TK-10 = system: TK-10
A498 = system: A498
Malme-3M = system: Malme-3M
HCT-15 = system: HCT-15
EKVX = system: EKVX
NCI/ADR-RES = system: NCI/ADR-RES
ACHN = system: ACHN
UO-31 = system: UO-31
MDA-N = system: MDA-N
SN12C = system: SN12C
HCC 2998 = system: HCC 2998
COLO 205 = system: COLO 205
SF-295 = system: SF-295
RXF 393 = system: RXF 393
SR = system: SR
Hs-578T = system: Hs-578T
UACC-62 = system: UACC-62
IGROV-1 = system: IGROV-1
A549 = system: A549
MOLT-4 = system: MOLT-4
786-0 = system: 786-0
HOP-62 = system: HOP-62
NCI-H226 = system: NCI-H226
K562 = system: K562
SW-620 = system: SW-620
OVCAR-3 = system: OVCAR-3
NCI-H460 = system: NCI-H460
RPMI-8226 = system: RPMI-8226
SK-MEL-28 = system: SK-MEL-28
MDA-MB-435 = system: MDA-MB-435
KM12 = system: KM12
U-251 = system: U-251
NCI-H23 = system: NCI-H23
HL-60 = system: HL-60
OVCAR-5 = system: OVCAR-5
DU-145 = system: DU-145
LOX IMVI = system: LOX IMVI
SK-MEL-5 = system: SK-MEL-5
OVCAR-4 = system: OVCAR-4
MDA-MB-231 = system: MDA-MB-231
SNB-19 = system: SNB-19
HCT-116 = system: HCT-116
SK-MEL-2 = system: SK-MEL-2
CAKI-1 = system: CAKI-1
OVCAR-8 = system: OVCAR-8
M14 = system: M14
BT-549 = system: BT-549
MCF7 = system: MCF7
SF-539 = system: SF-539
HOP-92 = system: HOP-92
CCRF-CEM = system: CCRF-CEM
HT-29 = system: HT-29
PC-3 = system: PC-3
NCI-H522 = system: NCI-H522
T47D = system: T47D
SF-268 = system: SF-268
UACC-257 = system: UACC-257
SNB-75 = system: SNB-75
SK-OV-3 = system: SK-OV-3

O=C(N[C@@H](Cc1ccccc1)B(O)O)[C@H](Cc1cccc2ccccc12)NC(=O)N1CCOCC1
GI50 (TK-10): 5.66 nM (active) | GI50 (A498): 2.61 nM (active) | GI50 (Malme-3M): 1.87 nM (active) | GI50 (HCT-15): 155 nM | GI50 (EKVX): 26.7 nM (active) | GI50 (NCI/ADR-RES): 938 nM (active) | GI50 (ACHN): 10.5 nM (active) | GI50 (UO-31): 232 nM (active) | GI50 (MDA-N): < 10 nM (active) | GI50 (SN12C): 3.71 nM (active) | GI50 (HCC 2998): 1.82 nM (active) | GI50 (COLO 205): 5.52 nM (active) | GI50 (SF-295): 4.78 nM (active) | GI50 (RXF 393): 1.67 nM (active) | GI50 (SR): 1.31 nM (active) | GI50 (Hs-578T): 1.75 nM (active) | GI50 (UACC-62): 2.48 nM (active) | GI50 (IGROV-1): 6.18 nM (active) | GI50 (A549): 26.2 nM (active) | GI50 (MOLT-4): 0.371 nM (active) | GI50 (786-0): 4.51 nM (active) | GI50 (HOP-62): 5.24 nM (active) | GI50 (NCI-H226): 0.29 nM (active) | GI50 (K562): 3.71 nM (active) | GI50 (SW-620): 2.58 nM (active) | GI50 (OVCAR-3): 0.891 nM (active) | GI50 (NCI-H460): 21.5 nM (active) | GI50 (RPMI-8226): 0.412 nM (active) | GI50 (SK-MEL-28): 1.06 nM (active) | GI50 (MDA-MB-435): 0.298 nM (active) | GI50 (KM12): 1.85 nM (active) | GI50 (U-251): 4.23 nM (active) | GI50 (NCI-H23): 1.72 nM (active) | GI50 (HL-60): < 10 nM (active) | GI50 (OVCAR-5): 2.81 nM (active) | GI50 (DU-145): 6.27 nM (active) | GI50 (LOX IMVI): 1.24 nM (active) | GI50 (SK-MEL-5): 1.54 nM (active) | GI50 (OVCAR-4): 4.54 nM (active) | GI50 (MDA-MB-231): 2.67 nM (active) | GI50 (SNB-19): 7.08 nM (active) | GI50 (HCT-116): 0.412 nM (active) | GI50 (SK-MEL-2): 1.25 nM (active) | GI50 (CAKI-1): 5.55 nM (active) | GI50 (OVCAR-8): 25.4 nM (active) | GI50 (M14): 1.68 nM (active) | GI50 (BT-549): 0.468 nM (active) | GI50 (MCF7): 0.476 nM (active) | GI50 (SF-539): 0.265 nM (active) | GI50 (HOP-92): 2.33 nM (active) | GI50 (CCRF-CEM): 0.186 nM (active) | GI50 (HT-29): 2.39 nM (active) | GI50 (PC-3): 5.69 nM (active) | GI50 (NCI-H522): < 10 nM (active) | GI50 (T47D): 1.04 nM (active) | GI50 (SF-268): 1.61 nM (active) | GI50 (UACC-257): 2.19 nM (active) | GI50 (SNB-75): < 10 nM (active)

COC1/C=C/C(C)C(C(C)C(OC)C(C)CCC(=O)C(C)C(CCC(=O)O)OC)OC(=O)/C=C/C=C(\C)CC(OC)CC2=CC(=O)O[C@@H](C(C)C(OC)CC(OC)/C=C/C(C)C(OC)C1)[C@H]2O (stereo partly specified)
GI50 (TK-10): 1650 nM (inactive) | GI50 (A498): 123 nM (active) | GI50 (Malme-3M): 592 nM (active) | GI50 (HCT-15): 740 nM | GI50 (EKVX): 2220 nM (inactive) | GI50 (NCI/ADR-RES): > 5000 nM (inactive) | GI50 (ACHN): 740 nM (active) | GI50 (MDA-N): 600 nM (active) | GI50 (SN12C): 733 nM (active) | GI50 (HCC 2998): 353 nM (active) | GI50 (COLO 205): 125 nM (active) | GI50 (SF-295): 859 nM (active) | GI50 (RXF 393): 583 nM (active) | GI50 (SR): 637 nM (active) | GI50 (Hs-578T): 499 nM (active) | GI50 (UACC-62): 787 nM (active) | GI50 (IGROV-1): 177 nM (active) | GI50 (A549): 332 nM (active) | GI50 (MOLT-4): 467 nM (active) | GI50 (786-0): 578 nM (active) | GI50 (HOP-62): 631 nM (active) | GI50 (NCI-H226): 695 nM (active) | GI50 (K562): 1920 nM (inactive) | GI50 (SW-620): 607 nM (active) | GI50 (OVCAR-3): 646 nM (active) | GI50 (NCI-H460): 430 nM (active) | GI50 (RPMI-8226): 242 nM (active) | GI50 (SK-MEL-28): 792 nM (active) | GI50 (MDA-MB-435): 748 nM (active) | GI50 (KM12): 2190 nM (inactive) | GI50 (U-251): 249 nM (active) | GI50 (NCI-H23): 1610 nM (inactive) | GI50 (HL-60): 185 nM (active) | GI50 (OVCAR-5): > 5000 nM (inactive) | GI50 (DU-145): 1710 nM (inactive) | GI50 (LOX IMVI): 226 nM (active) | GI50 (SK-MEL-5): 296 nM (active) | GI50 (OVCAR-4): 971 nM (active) | GI50 (MDA-MB-231): 483 nM (active) | GI50 (SNB-19): 679 nM (active) | GI50 (HCT-116): 385 nM (active) | GI50 (SK-MEL-2): 271 nM (active) | GI50 (CAKI-1): 269 nM (active) | GI50 (OVCAR-8): 2210 nM (inactive) | GI50 (M14): 630 nM (active) | GI50 (BT-549): 661 nM (active) | GI50 (MCF7): 1040 nM (active) | GI50 (SF-539): 292 nM (active) | GI50 (HOP-92): 372 nM (active) | GI50 (SK-OV-3): 1.18 µM (inactive) | GI50 (CCRF-CEM): 181 nM (active) | GI50 (HT-29): 284 nM (active) | GI50 (PC-3): 454 nM (active) | GI50 (NCI-H522): 1370 nM (inactive) | GI50 (T47D): 2560 nM (inactive) | GI50 (SF-268): 284 nM (active) | GI50 (UACC-257): 1240 nM (inactive) | GI50 (SNB-75): 160 nM (active)
